Legend:
[1] = test system: NKCC1 pThr203; test: Phosphorylation immunoblot in KCC2-transfected HEK293 cells; assay type: cell-based, human
Protocol: HEK293 (human embryonic kidney 293) cells were cultured on 10-cm-diameter dishes in DMEM supplemented with 10% (v/v) foetal bovine serum, 2 mM L-glutamine, 100 U/ml penicillin and 0.1 mg/ml streptomycin. HEK293 cells were transfected with a mixture of 20 μl of 1 mg/ml polyethylenimine (Polysciences) and 5-10 μg of plasmid DNA as described previously (Durocher et al., 2002). 36 hours post-transfection cells were stimulated with either control isotonic or hypotonic medium for a period of 30 minutes. Cells were lysed in 0.3 mL of ice-cold lysis buffer/dish, lysates were clarified by centrifugation at 4° C. for 15 minutes at 26,000 g and the supernatant aliquots were frozen in liquid nitrogen and stored at −20° C. Protein concentrations were determined using the Bradford method. Cells were treated with the indicated concentrations of the SPAK/OSR1 inhibitors. […] Hypotonic low chloride buffer was 67.5 mM sodium-gluconate, 2.5 mM potassium-gluconate, 0.25 mM CaCl2), 0.25 mM MgCl2, 0.5 mM Na2HPO4, 0.5 mM Na2SO4 and 7.5 mM HEPES (pH 7.5).
The membranes were incubated for 30 min with TBST (Tris-buffered saline, 0.05% Tween-20) containing 5% (w/v) skim milk. The blots were then washed six times with TBST and incubated for 1 hour at room temperature with secondary HRP-conjugated antibodies diluted 5000-fold in 5% (w/v) skim milk in TBST. After repeating the washing steps, signals were detected with enhanced chemiluminescence reagent. Immunoblots were developed using a film automatic processor (SRX-101; Konica Minolta Medical) and films were scanned at 600 dpi (PowerLook 1000; UMAX). Figures were generated using Photoshop/Illustrator (Adobe). The densities of bands were measured with ImageJ. For phospho-antibody immunoprecipitation, KCC isoforms were immunoprecipitated from indicated cell extracts. 2 mg of the indicated clarified cell extract were mixed with 15 μg of the indicated phospho-specific KCC antibody conjugated to 15 μl of protein-G-Sepharose, in the added presence of […] of the dephosphorylated form of the phosphopeptide antigen, and incubated 2 hours at 4° C. with gentle shaking. Immunoprecipitates were washed three times with 1 mL of lysis buffer containing 0.15 M NaCl and twice with 1 ml of buffer A. Bound proteins were eluted with 1×LDS sample buffer.
HEK293 cells were transfected with a DNA construct encoding wild type N-terminally FLAG-tagged KCC2. 36 hrs post-transfection, cells were exposed 30 min to either control isotonic or hypotonic low [C1^−] conditions, then treated in the same conditions for an additional 30 min with the indicated inhibitors at the concentrations noted. Cell lysates were subjected to SDS-PAGE and Western blotting with the indicated antibodies. See FIG. 3 for Western blot quantitation.
Referring to FIG. 2, concentration-response experiments testing effects of Closantel analogs on phosphorylation of KCC2 Thr906/Thr1007 are shown. HEK293 cells were transfected with DNA construct encoding wild type N-terminally FLAG-tagged KCC2. 36 h post-transfection, cells were exposed 30 min to either control isotonic conditions or hypotonic low Cl^− conditions, then treated in the same conditions with the specified inhibitors (1b, 1c, 1f, 1d, 1h, and 1g, respectively) at the indicated concentrations for an additional 30 min. Lysates were subjected to SDS-PAGE and Western blotting with the indicated antibodies.
Referring to FIG. 3, HEK293 cells were transfected with the DNA construct encoding wild type N-terminally FLAG-tagged KCC2. 36 h post-transfection, cells were exposed 30 min to either control isotonic or hypotonic low Cl^− conditions, then treated in the same conditions with the specified inhibitors at the indicated concen-trations for an additional 30 min. Lysates were subjected to SDS-PAGE and Western blotting with the indicated antibodies. Closantel, STOCK1S-14279 and STOCK1S-50699 were used as reference compounds.

[2] = test system: pNKCC1; test: IVH-induced phosphorylation in rat choroid plexus, ICV delivery; assay type: in vivo; conditions: 48 hrs post-IVH, n=3
[3] = test system: wild type KCC2; test: 86Rb+ uptake assay in HEK293 cells; assay type: cell-based, human; conditions: n=3
Protocol: (§1) HEK293 cells were plated at 50-60% confluence of in 12-well plates (2.4-cm-diameter per/well) and transfected with wild-type or various mutant forms of full-length flag-tagged human KCCs. Each well of HEK293 cells was transfected with 2.5 μL of 1 mg/mL polyethylenimine and 1 μg of plasmid DNA. The ^86Rb^+-uptake assay was performed on cells at 36 hours post-transfection. Culture medium was aspirated from the wells and replaced with either isotonic or hypotonic medium for 15 min at 37° C., then for a further 15 min with stimulating medium containing additional 1 mM ouabain and 0.1 mM bumetanide, to prevent ^86Rb^+ uptake via the NKCC1 cotransporter. This stimulating medium was then removed and replaced with isotonic medium plus inhibitors containing 2 μCi/mL ^86Rb^+ for 10 min at 37° C., following which cells were rapidly washed three times with the respective ice-cold non-radioactive medium. The cells were lysed in 300 μL of ice-cold lysis buffer and ^86Rb^+ uptake was quantitated by liquid scintillation counting (PerkinElmer).
(§2) Referring to FIG. 8, ^86Rb^+ uptake assays in the presence of ZT-1a is shown. […] 10 min ^86Rb^+ uptake values were quantified by scintillation counting, normalized per mg protein for each condition and plotted for both isotonic and hypotonic conditions. Statistical significance was determined at p<0.05 (both panels).

[4] = test system: KCC2 double mutant Thr906A1a/Thr1007Ala; test: 86Rb+ uptake assay in HEK293 cells; assay type: cell-based, human; conditions: n=3, p>0.05
Protocol: as §1, §2

## Cc1cc(C(C#N)c2ccc(Cl)cc2)c(Cl)cc1NC(=O)c1cc(Cl)ccc1O (stereo not drawn) [ZT-1a, 5-chloro-N-(5-chloro-4-((4-chlorophenyl)(cyano)methyl)-2-methylphenyl)-2-hydroxy-benzamide]
[1]; Homo sapiens, read-out: inhibition of NKCC1 p-Thr203/207/212, up to, at 1 μM, n=4
  inhibition at 1 µM: ≤ 72%
[1]; hypotonic low Cl- conditions, concentration inhibiting phosphorylation
  NKCC1 pThr203 (μM) hypo: 1, 1 μM
[1]; isotonic conditions, concentration inhibiting phosphorylation
  NKCC1 pThr203 (μM) Iso: 1, 1 μM
[2]
  reduction of IVH-induced expression of pNKCC1: 69±4.3%
[3]
  activation of WT KCC2 (86Rb+ uptake): > 2.6 fold
[4]
  increase of activity of KCC2 double mutant (86Rb+ uptake): 7±2%

Source: patent publication US11414379B2, “SPAK kinase inhibitors as neuroprotective agents” (United States Government as represented by the Department …, priority 2018, dated 2022)
